Assay results as given in patent US10435361B2, “Kinase inhibitors” (Topivert Pharma Limited, priority 2013, dated 2019).

Experiments:
Assay type in all cases: cell-based
[1] = tested on: PBMCs; assay: IL-2 and IFN gamma release in CD3/CD28 stimulated PBMC cells; conditions: Homo sapiens, assay (c)
Experimental: PBMCs from healthy subjects are separated from whole blood using a density gradient (Lymphoprep, Axis-Shield Healthcare). Cells are added to a 96 well plate pre-coated with a mixture of CD3/CD28 monoclonal antibodies (0.3 μg/mL eBioscience and 3 μg/mL BD Pharmingen respectively). Compound at the desired concentration is then added to the wells and the plate left for 3 days under normal tissue culture conditions. […] The IC50 is determined from the dose response curve.

[2] = tested on: PBMCs; assay: LPS-induced TNFα/IL-8 release in PBMC cells; conditions: Homo sapiens, assay (b), read-out: IC50 Values for Inhibition of Cytokine Release PBMCs IL-8
In short: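 Healthy-donor PBMCs isolated by density gradient were pretreated with compound for 2 h, then stimulated with 1 ng/mL LPS (E. coli 0111:B4) for 24 h at 37° C., 5% CO2. IL-8 and TNFα in supernatants measured by sandwich ELISA.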

[3] = tested on: PBMCs; assay: Cell mitosis assay in PBMCs; conditions: Homo sapiens, PBMC, 5 μg/mL
Experimental: Peripheral blood mononucleocytes (PBMCs) from healthy subjects are separated from whole blood (Quintiles, London, UK) using a density gradient (Histopaque®-1077, Sigma-Aldrich, Poole, UK). The PBMCs (3 million cells per sample) are subsequently treated with 2% PHA (phytohaemagglutinin, Sigma-Aldrich, Poole, UK) for 48 hr, followed by a 20 hr exposure to varying concentrations of test compounds. At 2 hr before collection, PBMCs are treated with demecolcine (0.1 μg/mL; Invitrogen, Paisley, UK) to arrest cells in metaphase. To observe mitotic cells, PBMCs are permeabilised and fixed by adding Intraprep (50 μL; Beckman Coulter, France), and stained with anti-phospho-histone 3 (0.26 ng/L; #9701; Cell Signalling, Danvers, Mass.) and propidium iodide (1 mg/mL; Sigma-Aldrich, Poole, UK) as previously described (Muehlbauer P. A. and Schuler M. J., Mutation Research, 2003, 537:117-130). Fluorescence is observed using an ATTUNE flow cytometer (Invitrogen, Paisley, UK), gating for lymphocytes.

[4] = read-out: IC50 Values for Inhibition of Cytokine Release PBMCs IFNγ
[5] = read-out: IC50 Values for Inhibition of Cytokine Release PBMCs IL-2

Row | SMILES | IC50 [1, 4] [nM] | IC50 [1, 5] [nM] | IC50 [2] [nM] | inhibition at 5 µg/mL [3] [%]
1 | COc1cccc(Nc2cc(Oc3ccc(NC(=O)Nc4cc(C(C)(C)C)cc(C(=O)NC5COC5)c4OC)c4ccccc34)ccn2)c1 [Example 81, 5-(tert-Butyl)-2-methoxy-3-(3-(4-((2-((3-methoxyphenyl)amino)pyridin-4-yl)oxy)naphthalen-1-yl)ureido)-N-(oxetan-3-yl)benzamide] | 4 | 98.8 | 2.7 | 58.1
2 | C#Cc1cc(Nc2cc(Oc3ccc(NC(=O)Nc4cc(C(C)(C)C)cc(NS(C)(=O)=O)c4OC)c4ccccc34)ccn2)cc(C(=O)NCCCN2CCOCC2)c1 [85(d), 3-[[4-[[4-[[5-tert-Butyl-3-(methanesulfonamido)-2-methoxyphenyl]-carbamoylamino]-1-naphthyl]oxy]-2-pyridyl]amino]-5-ethynyl-N-(3-morpholinopropyl)-benzamide] | 15.4 | 94.3 | 2.1 | 33.2
3 | COCCOCCOCCOc1cc(Nc2nccc(Oc3ccc(NC(=O)Nc4cc(C(C)(C)C)cc(C(=O)NCCN(C)C)c4OC)c4ccccc34)n2)cc(OC)c1 [Example 46, 5-(tert-Butyl)-N-(2-(dimethylamino)ethyl)-2-methoxy-3-(3-(4-((2-((3-methoxy-5-(2-(2-(2-methoxyethoxy)ethoxy)ethoxy)phenyl)amino)pyrimidin-4-yl)oxy)naphthalen-1-yl)ureido)-benzamide] | 2 | – | 0.9 | 67.1
4 | C#Cc1cc(Nc2nccc(Oc3ccc(NC(=O)Nc4cc(C(C)(C)C)cc(NS(C)(=O)=O)c4OC)c4ccccc34)n2)cc(C(=O)NCCN2CCOCC2)c1 [Example 1, 3-((4-((4-(3-(5-(tert-Butyl)-2-methoxy-3-(methylsulfonamido)phenyl)ureido)naphthalen-1-yl)oxy)pyrimidin-2-yl)amino)-5-ethynyl-N-(2-morpholinoethyl)benzamide] | 10.4 | 112 | 1.4 | 22.1
5 | COc1cc(Nc2cc(Oc3ccc(NC(=O)Nc4cc(C(C)(C)C)cc(NS(C)(=O)=O)c4OC)c4ccccc34)ccn2)cc(C(=O)NCC(C)(C)N2CCOCC2)c1 [85(h), 3-[[4-[[4-[[5-tert-Butyl-3-(methanesulfonamido)-2-methoxyphenyl]-carbamoylamino]-1-naphthyl]oxy]-2-pyridyl]amino]-5-methoxy-N-(2-methyl-2-morpholinopropyl)benzamide] | 23 | 150 | 2.2 | 27.5
6 | CNC(=O)c1cc(C(C)(C)C)cc(NC(=O)Nc2ccc(Oc3ccnc(Nc4cc(OC)cc(OCCOCCOCCOC)c4)n3)c3ccccc23)c1OC [Example 13, 5-(tert-Butyl)-2-methoxy-3-(3-(4-((2-((3-methoxy-5-(2-(2-(2-methoxyethoxy)ethoxy)-ethoxy)phenyl)amino)pyrimidin-4-yl)oxy)naphthalen-1-yl)ureido)-N-methylbenzamide] | 4.6 | 57.4 | 1.3 | 46.1
7 | COCCOCCOCCOc1cc(Nc2nccc(Oc3ccc(NC(=O)Nc4cc(C(C)(C)C)cc(C(=O)NCCO)c4OC)c4ccccc34)n2)cc(OC)c1 [Example 35, 5-(tert-Butyl)-N-(2-hydroxyethyl)-2-methoxy-3-(3-(4-((2-((3-methoxy-5-(2-(2-(2-methoxy-ethoxy)ethoxy)ethoxy)phenyl)amino)pyrimidin-4-yl)oxy)naphthalen-1-yl)ureido)-benzamide] | 3.5 | 51 | 1.4 | 41.1
8 | C#Cc1cc(Nc2cc(Oc3ccc(NC(=O)Nc4cc(C(C)(C)C)cc(NS(C)(=O)=O)c4OC)c4ccccc34)ccn2)cc(C(=O)N[C@@H](C)COCCOCCOC)c1 [Example 67, (S)-3-((4-((4-(3-(5-(tert-Butyl)-2-methoxy-3-(methylsulfonamido)phenyl)ureido)-naphthalen-1-yl)oxy)pyridin-2-yl)amino)-5-ethynyl-N-(1-(2-(2-methoxyethoxy)ethoxy)-propan-2-yl)benzamide] | 39.5 | 200 | 2.7 | 35.6
